Reference: US12312350B2, “Compounds for inhibiting NLRP3 and uses thereof” (Ventus Therapeutics U.S., Inc., priority 2021, dated 2025)

Target: NLRP3 (Homo sapiens, UniProt Q96P20)
Assay: Human whole blood (hWB) NLRP3 Assay
Description: Heparin lithium coated tubes were used to collect blood from volunteers. Blood samples were distributed on 96 well plates using 90 μl per well. […] Human whole blood was drawn from healthy volunteers after obtaining written informed consent.

Chain of NLRP3 (Q96P20 whole entry): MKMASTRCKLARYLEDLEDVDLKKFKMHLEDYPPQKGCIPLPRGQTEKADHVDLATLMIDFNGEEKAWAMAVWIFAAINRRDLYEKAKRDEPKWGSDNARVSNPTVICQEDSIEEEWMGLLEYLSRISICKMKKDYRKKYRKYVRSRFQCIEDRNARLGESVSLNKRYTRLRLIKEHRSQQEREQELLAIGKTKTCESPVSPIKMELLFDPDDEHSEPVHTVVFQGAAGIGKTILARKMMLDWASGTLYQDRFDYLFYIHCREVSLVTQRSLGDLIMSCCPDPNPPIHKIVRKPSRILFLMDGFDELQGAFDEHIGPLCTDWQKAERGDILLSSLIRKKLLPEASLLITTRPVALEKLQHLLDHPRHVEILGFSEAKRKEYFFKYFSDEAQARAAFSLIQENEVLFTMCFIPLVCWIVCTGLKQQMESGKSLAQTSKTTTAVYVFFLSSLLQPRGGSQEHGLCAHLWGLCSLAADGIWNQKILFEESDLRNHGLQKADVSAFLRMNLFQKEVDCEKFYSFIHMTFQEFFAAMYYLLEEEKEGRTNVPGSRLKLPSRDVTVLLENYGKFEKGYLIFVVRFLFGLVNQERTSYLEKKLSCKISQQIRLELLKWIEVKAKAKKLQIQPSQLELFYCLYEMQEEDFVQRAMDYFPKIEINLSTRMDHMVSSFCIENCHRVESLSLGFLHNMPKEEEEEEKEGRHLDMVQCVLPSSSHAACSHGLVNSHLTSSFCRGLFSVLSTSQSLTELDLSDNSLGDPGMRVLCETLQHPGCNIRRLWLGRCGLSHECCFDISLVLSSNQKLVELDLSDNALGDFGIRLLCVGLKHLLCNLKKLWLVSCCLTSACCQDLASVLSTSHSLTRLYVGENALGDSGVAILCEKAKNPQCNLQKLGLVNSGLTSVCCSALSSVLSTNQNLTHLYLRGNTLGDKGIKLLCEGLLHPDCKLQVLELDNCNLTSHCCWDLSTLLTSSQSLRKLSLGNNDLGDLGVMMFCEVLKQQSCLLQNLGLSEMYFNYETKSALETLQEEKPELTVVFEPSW

IC50: 42 µM
SMILES: Clc1ccc(-c2nnc(NCC3CCCO3)c3ccncc23)cc1 (stereo not shown)
